Reference: US10479792B2, “Compounds” (GlaxoSmithKline Intellectual Property Development Limited, priority 2015, dated 2019)

Assays:
Format in all cases: cell-based
Leishmania donovani [1] = test: Intramacrophage Leishmania donovani assay (Assay 1), average number of amastigotes per cell (potency readout); conditions: THP-1, 96 h, amastigotes in PMA-differentiated THP-1 macrophages, 96 h incubation, read-out: pEC50 value against Leishmania donovani (converted)
Method: Assay 1. Intramacrophage Leishmania donovani Assay
The intramacrophage Leishmania assay was performed using a modified version of the method described in De Rycker et al. (Antimicrob Agents Chemother. 2013 July; 57(7):2913-22. Comparison of a high-throughput high-content intracellular Leishmania donovani assay with an axenic amastigote assay. De Rycker M, Hallyburton I, Thomas J, Campbell L, Wyllie S, Joshi D, Cameron S, Gilbert I H, Wyatt P G, Frearson J A, Fairlamb A H, Gray D W.). Procedure: 350 nl of compound was pre-dispensed into 384 well sterile intermediary plates. For single point screening, amphotericin B was added to all wells of column 24 as a positive control (final concentration 2 μM) and DMSO to column 23. For potency determinations, ten-point, one in three dilution curves were created with the highest concentration being 50 μM and on each plate a control curve of amphotericin B was included. Controls were as follows: columns 11 and 12: DMSO, columns 23 and 24: amphotericin B (final concentration 2 μM). To the intermediary plates, 35 μl of THP-1 media was added and plates were shaken for >5 min to ensure complete mixing. THP-1 cells (8,000 per well, 50 μl) were plated into black clear-bottom 384 well plates (Corning) in presence of 20 nM PMA. After 20 min at RT, the plates were incubated at 37° C. under 5% CO2 in a humidified incubator for 75 h. The cells were then washed with […] sterile phosphate buffered saline (PBS) supplemented with 1 mM CaCl2, 0.5 mM MgCl2, 0.1% (w/v) bovine serum albumin (PBS-A) and amastigotes were added to all wells at a multiplicity of infection of 5 (40,000 amastigotes per well). After 40 min at RT, plates were returned to the incubator. Amastigotes were incubated in the presence of THP-1 macrophages for 16 h. Any remaining extracellular amastigotes were subsequently removed with an overflow wash of 1 mL PBS-A per well (wash buffer is being aspirated from the top of the well as it is being dispensed) followed by addition of 25 μl of the compound pre-dilutions using a Fluidx Ipette-pro pipetting station. The final dilution of each compound was 200-fold. Plates were incubated for 96 h and then washed (250 μl PBS-A) and fixed (4% (v/v) formaldehyde-PBS, 30 min, RT). After fixation, the wells were washed with 250 μl PBS, stained (10 μg/mL DAPI, 0.4 μg mL-1 HCS Cellmask Deep Red in PBS+0.1% (v/v) Triton X-100, 30 min, RT) and washed with 250 μl PBS. Finally, PBS+0.05% (v/v) thimerosal was added to the wells, the plates were sealed and imaged on a high-content microscope (GE IN Cell 2000) using a 10× objective. Image analysis was carried out with GE IN Cell Analyzer 1000 Workstation using the “Multi Target Analysis” module. Settings for segmentation were as follows: nuclei: minimum area: 142.384 μm2, sensitivity: 81, method: top-hat; cells: characteristic area: 2500 μm2, sensitivity: 60, method: multiscale top-hat; organelles (amastigotes): granule size 1-3, 3 scales, sensitivity: 90, detection in entire cell. For each well, i) THP-1 cell count (cytotoxicity readout) and ii) average number of amastigotes per cell (potency readout) were calculated, both in terms of pEC50 values.

Leishmania donovani [2] = test: Leishmania donovani intracellular assay (Assay 5); conditions: THP-1, 96 h, eGFP amastigotes in THP-1 cells, 96 h incubation, read-out: pEC50 value against Leishmania donovani (converted)
Method: (§1) Assay 5. Leishmania donovani Intracellular Assay
(§2) Compounds were dispensed into black 384-well assay plates (Greiner) by acoustic dispensing (LabCyte ECHO). For potency determinations, eleven-point, one in three dilution curves were generated, with a top concentration of 50 μM. THP-1 human monocytes cells were dispensed in T225 tissue culture flasks and differentiated using 30 nM of PMA, after 24 hours they were infected overnight using Leishmania donovani expressing Green Fluorescent Protein (eGFP) amastigotes in the same T225 tissue culture flasks at a multiplicity of infection of 10. Next, any remaining free amastigotes were washed away with PBS and the infected THP-1 cells were harvested by trypsinisation. The infected cells were then plated into 384-well plates containing the compounds to be tested, at 3000 cells per well in RPMI media with 2% FBS and 25 mM Sodium bicarbonate. After 96 h incubation at 37° C. in presence of 5% CO2, the plates were fixed with 4% formaldehyde for 30 minutes, washed with PBS and stained with 0.1 mg/mL of DAPI for 30 minutes and washed again with PBS. The plates were imaged on a Perkin Elmer Opera high-content imaging system using a 20× air objective with two expositions, one for DAPI stain and other for eGFP. Images were analysed using the Acapella building blocks system (Perkin Elmer). The image analysis algorithm first identified the THP-1 nuclei followed by demarcation of the cytoplasm and identification of intracellular amastigotes. This algorithm reported mean number of parasites per THP-1 cell, the percentage of infected THP-1 cells and the total number of THP-1 cells.

THP-1 cells = test: Leishmania donovani intracellular assay (Assay 5), THP-1 cytotoxicity; conditions: human, 96 h incubation, read-out: cytotoxicity against THP-1 cells, pEC50 (converted)
Method: as §1, §2

Structure (SMILES)	EC50 (Leishmania donovani [1]) [µM]	EC50 (Leishmania donovani [2]) [µM]	EC50 at 96 h (THP-1 cells) [µM]
O=C(Nc1ccc(F)c(-c2ccn3c(-c4ccccc4)cnc3n2)c1)N1CCCC1 [Example 3, N-(4-fluoro-3-(3-phenylimidazo[1,2-a]pyrimidin-7-yl)phenyl)pyrrolidine-1-carboxamide]	0.251 to 10	0.126 to 10	12.6 to 50.1
C[C@@H]1CCCN1C(=O)Nc1ccc(F)c(-c2ccn3c(N4CCOCC4)cnc3n2)c1 [Example 33, N-(4-fluoro-3-(3-morpholinoimidazo[1,2-a]pyrimidin-7-yl)phenyl)-2-methylpyrrolidine-1-carboxamide]	0.251 to 10	0.126 to 10	
O=C(Nc1cccc(-c2ccn3c(N4CCOCC4)cnc3n2)c1)N1CCCC1 [Example 1, N-(3-(3-morpholinoimidazo[1,2-a]pyrimidin-7-yl)phenyl)pyrrolidine-1-carboxamide]	0.251 to 10	0.126 to 10	
CN1CCN(c2cnc3nc(-c4cc(NC(=O)N5CCCC5)ccc4F)ccn23)CC1 [Example 36, N-(4-fluoro-3-(3-(4-methylpiperazin-1-yl)imidazo[1,2-a]pyrimidin-7-yl)phenyl)pyrrolidine-1-carboxamide]	12.6 to 20	0.126 to 10	
CN1CCOCC1c1cnc2nc(-c3cc(NC(=O)N4CCCC4)ccc3F)ccn12 (centres unmarked) [Example 43, N-(4-fluoro-3-(3-(4-methylmorpholin-3-yl)imidazo[1,2-a]pyrimidin-7-yl)phenyl)pyrrolidine-1-carboxamide]	0.251 to 10	0.126 to 10	
CCc1cc(-c2cc(NC(=O)N3CCCC3)ccc2F)nc2ncc(N3CCOCC3)n12 [Example 13, N-(3-(5-ethyl-3-morpholinoimidazo[1,2-a]pyrimidin-7-yl)-4-fluorophenyl)pyrrolidine-1-carboxamide]	0.251 to 10	0.126 to 10	
COC1CCN(c2cnc3nc(-c4cc(NC(=O)N5CCCC5)ccc4F)ccn23)CC1 [Example 47, N-(4-fluoro-3-(3-(4-methoxypiperidin-1-yl)imidazo[1,2-a]pyrimidin-7-yl)phenyl)pyrrolidine-1-carboxamide]	0.251 to 10	0.126 to 10	
O=C(Nc1ccc(F)c(-c2ccn3c(-c4cnccn4)cnc3n2)c1)N1CCCC1 [Example 27, N-(4-fluoro-3-(3-(pyrazin-2-yl)imidazo[1,2-a]pyrimidin-7-yl)phenyl)pyrrolidine-1-carboxamide]	0.251 to 10	0.126 to 10	
O=C(Nc1ccc(F)c(-c2ccn3c(N4CCOCC4)cnc3n2)c1)N1CCC(F)(F)C1 [Example 25, 3,3-difluoro-N-(4-fluoro-3-(3-morpholinoimidazo[1,2-a]pyrimidin-7-yl)phenyl)pyrrolidine-1-carboxamide]	12.6 to 20	0.126 to 10	
CC(C)(C)OC(=O)N1CCN(c2cnc3nc(-c4cc(NC(=O)N5CCCC5)ccc4F)ccn23)CC1 [Example 35, tert-butyl 4-(7-(2-fluoro-5-(pyrrolidine-1-carboxamido)phenyl)imidazo[1,2-a]pyrimidin-3-yl)piperazine-1-carboxylate]	0.251 to 10	0.126 to 10	
O=C(Nc1ccc(F)c(-c2ccn3c(CN4CCOCC4)cnc3n2)c1)N1CCCC1 [Example 20, N-(4-fluoro-3-(3-(morpholinomethyl)imidazo[1,2-a]pyrimidin-7-yl)phenyl)pyrrolidine-1-carboxamide]	12.6 to 20	0.126 to 10	
Cc1cn2c(N3CCOCC3)cnc2nc1-c1cccc(NC(=O)N2CCCC2)c1 [Example 14, N-(3-(6-methyl-3-morpholinoimidazo[1,2-a]pyrimidin-7-yl)phenyl)pyrrolidine-1-carboxamide]	> 50.1	12.6 to 39.8	
O=C(Nc1ccc(F)c(-c2ccn3c(N4CCOCC4)cnc3n2)c1)N1CC(F)(F)C1 [Example 24, 3,3-difluoro-N-(4-fluoro-3-(3-morpholinoimidazo[1,2-a]pyrimidin-7-yl)phenyl)azetidine-1-carboxamide]	0.251 to 10	0.126 to 10	
O=C(Nc1ccc(F)c(-c2ccn3c(-c4ccc(CN5CCOCC5)cc4)cnc3n2)c1)N1CCCC1 [Example 21, N-(4-fluoro-3-(3-(4-(morpholinomethyl)phenyl)imidazo[1,2-a]pyrimidin-7-yl)phenyl)pyrrolidine-1-carboxamide]	0.251 to 10	0.126 to 10	
C[C@H]1CN(c2cnc3nc(-c4cc(NC(=O)N5CCCC5)ccc4F)ccn23)CCO1 [Example 40, (S)—N-(4-fluoro-3-(3-(2-methylmorpholino)imidazo[1,2-a]pyrimidin-7-yl)phenyl)pyrrolidine-1-carboxamide]	0.251 to 10	0.126 to 10	
Cc1cn2c(N3CCOCC3)cnc2nc1-c1cc(NC(=O)N2CCCC2)ccc1F [Example 15, N-(4-fluoro-3-(6-methyl-3-morpholinoimidazo[1,2-a]pyrimidin-7-yl)phenyl)pyrrolidine-1-carboxamide]	12.6 to 20	12.6 to 39.8	
O=C(Nc1cc(-c2ccn3c(N4CCOCC4)cnc3n2)c(F)cc1F)N1CCCC1 [Example 46, N-(2,4-difluoro-5-(3-morpholinoimidazo[1,2-a]pyrimidin-7-yl)phenyl)pyrrolidine-1-carboxamide]	> 50.1	0.126 to 10	
CC1(C)CN(c2cnc3nc(-c4cc(NC(=O)N5CCCC5)ccc4F)ccn23)CCO1 [Example 41, N-(3-(3-(2,2-dimethylmorpholino)imidazo[1,2-a]pyrimidin-7-yl)-4-fluorophenyl)pyrrolidine-1-carboxamide]	0.251 to 10	0.126 to 10	
CC(C)c1cnc2nc(-c3cc(NC(=O)N4CCCC4)ccc3F)ccn12 [Example 18, N-(4-fluoro-3-(3-isopropylimidazo[1,2-a]pyrimidin-7-yl)phenyl)pyrrolidine-1-carboxamide]	0.251 to 10	0.126 to 10	
CC(C)(C)OC(=O)N1CCOCC1c1cnc2nc(-c3cc(NC(=O)N4CCCC4)ccc3F)ccn12 (centres unmarked) [Example 44, tert-butyl 3-(7-(2-fluoro-5-(pyrrolidine-1-carboxamido)phenyl)imidazo[1,2-a]pyrimidin-3-yl)morpholine-4-carboxylate]	0.251 to 10	0.126 to 10	
C[C@@H]1CCN(C(=O)Nc2ccc(F)c(-c3ccn4c(N5CCOCC5)cnc4n3)c2)C1 [Example 34]	0.251 to 10	0.126 to 10	
CC1CN(C(=O)Nc2ccc(F)c(-c3ccn4c(N5CCOCC5)cnc4n3)c2)C1 [Example 49, N-(4-fluoro-3-(3-morpholinoimidazo[1,2-a]pyrimidin-7-yl)phenyl)-3-methylazetidine-1-carboxamide]	12.6 to 20	0.126 to 10	
Cc1cc(-c2cc(NC(=O)N3CCCC3)ccc2F)nc2ncc(N3CCOCC3)n12 [Example 12, N-(4-fluoro-3-(5-methyl-3-morpholinoimidazo[1,2-a]pyrimidin-7-yl)phenyl)pyrrolidine-1-carboxamide]	0.251 to 10	0.126 to 10	
